Data taken from US20170275270A1, “BENZYL SUBSTITUTED INDAZOLES” (Bayer Pharma Aktiengesellschaft, priority 2014, published 2017).
Counter-ions that a name gives are not always drawn. Like-named read-outs stand apart in the source and are kept apart here.

Experiments:
[1] = target: T1, catalytic domain of human Bub1 (amino acids 704-1085) (Homo sapiens, UniProt O43683); experiment: Bub1 kinase assay (TR-FRET); assay type: biochemical
T1 construct: catalytic domain of human Bub1 (amino acids 704-1085); His6 (N); made in house; host or cells: Hi5 insect cells
Method in brief: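 TR-FRET read-out (Eu-anti-mouse IgG/anti-phosphoserine antibody to streptavidin-XL665 on biotinylated peptide) after EDTA stop and 1 h complex formation at 22° C. Kinase reaction ran 60 min at 22° C with 1:3.4 serial dilutions from 2 mM DMSO stocks. IC50 from 4-parameter logistic fit of normalized inhibition.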

Bub1 = Bub1 (Homo sapiens, UniProt O43683); experiment: Formation-Assay: phosphorylation status of histone 2A by inhibition of kinase activity of Bub1; assay type: cell-based; conditions: Biological Assay 4.1: H2A Formation IC50, co-treatment with Nocodazole 1 μg/ml, 16 h
Method in brief: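 Cells co-treated 16 h with Nocodazole (1 μg/ml) and compound (3 nM–10 μM), then fixed and immunostained for phospho-H2A, read by infrared imaging (800 nm) normalised to cell stain (700 nm). Nocodazole-only set as 100%, untreated cells as 0%.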

HeLa = experiment: Proliferation assay (HeLa cell line); conditions: Homo sapiens, 96 h, read-out: Biological Assay 2: Proliferation assay (HeLa cell line) median IC50;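 also: crystal violet staining of cell number, scaled between a plate stained before dosing (0%) and cells left untreated (100%), compounds tested at 0.001-10 µM, IC50 via 4-parameter fit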
[2] = test system: HeLa human cervical tumor cells; experiment: Proliferation assay (HeLa+Paclitaxel); conditions: read-out: Biological Assay 3: HeLa + Paclitaxel IC50, 3 nM paclitaxel, crystal violet;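 also: compounds at 0.001-10 µM added 4 h after paclitaxel, 92 h exposure, absorbance normalized to zero-point plate (0%) and untreated cells (100%), IC50 from 4-parameter fit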
[3] = 10 μM ATP, read-out: Biological Assay 1: Bub1 kinase assay median IC50
[4] = Biological Assay 1: Bub1 kinase assay median IC50, 10 μM ATP

T1 sequence (O43683 704-1085): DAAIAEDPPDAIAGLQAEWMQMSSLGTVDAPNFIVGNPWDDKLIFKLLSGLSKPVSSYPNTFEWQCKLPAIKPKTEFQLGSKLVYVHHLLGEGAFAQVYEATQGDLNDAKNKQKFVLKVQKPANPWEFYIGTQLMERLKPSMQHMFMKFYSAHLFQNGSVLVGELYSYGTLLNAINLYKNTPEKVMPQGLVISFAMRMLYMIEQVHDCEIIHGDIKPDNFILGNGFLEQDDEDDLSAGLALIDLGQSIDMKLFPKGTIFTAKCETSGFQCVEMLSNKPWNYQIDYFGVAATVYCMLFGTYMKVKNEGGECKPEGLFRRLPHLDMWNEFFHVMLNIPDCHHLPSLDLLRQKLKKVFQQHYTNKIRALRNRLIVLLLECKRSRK
Bub1, sequence (O43683 whole entry): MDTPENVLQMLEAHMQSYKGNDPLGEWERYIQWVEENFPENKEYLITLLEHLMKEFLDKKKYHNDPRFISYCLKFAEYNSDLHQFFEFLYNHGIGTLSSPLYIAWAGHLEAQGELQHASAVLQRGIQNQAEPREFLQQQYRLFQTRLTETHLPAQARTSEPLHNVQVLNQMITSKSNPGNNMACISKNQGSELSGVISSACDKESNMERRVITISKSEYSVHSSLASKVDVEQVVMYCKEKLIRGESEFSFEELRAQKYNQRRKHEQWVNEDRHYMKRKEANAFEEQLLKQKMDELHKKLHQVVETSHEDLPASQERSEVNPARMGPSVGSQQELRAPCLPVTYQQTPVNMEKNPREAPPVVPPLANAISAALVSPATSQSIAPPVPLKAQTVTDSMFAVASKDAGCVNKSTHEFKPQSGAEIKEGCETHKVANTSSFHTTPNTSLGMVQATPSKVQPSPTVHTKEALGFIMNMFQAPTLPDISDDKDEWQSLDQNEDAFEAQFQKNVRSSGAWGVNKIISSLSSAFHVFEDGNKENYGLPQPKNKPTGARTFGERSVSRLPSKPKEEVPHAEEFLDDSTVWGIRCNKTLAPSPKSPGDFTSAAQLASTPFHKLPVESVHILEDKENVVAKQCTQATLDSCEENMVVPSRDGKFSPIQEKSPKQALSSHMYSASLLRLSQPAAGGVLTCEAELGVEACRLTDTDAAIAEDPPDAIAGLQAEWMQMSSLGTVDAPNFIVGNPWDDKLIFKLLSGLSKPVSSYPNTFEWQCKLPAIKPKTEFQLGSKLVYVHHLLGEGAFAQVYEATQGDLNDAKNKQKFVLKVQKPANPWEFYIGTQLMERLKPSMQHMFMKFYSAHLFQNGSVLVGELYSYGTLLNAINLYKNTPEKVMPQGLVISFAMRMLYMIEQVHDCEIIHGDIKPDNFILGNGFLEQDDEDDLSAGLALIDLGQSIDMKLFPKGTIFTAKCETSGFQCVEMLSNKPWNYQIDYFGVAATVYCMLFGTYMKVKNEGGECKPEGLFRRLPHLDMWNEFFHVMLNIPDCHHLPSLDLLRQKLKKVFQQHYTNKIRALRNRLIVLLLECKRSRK

| Structure (SMILES) | IC50 [1, 3] [nM] | IC50 (Bub1) [nM] | IC50 (HeLa) [nM] | IC50 [2] [nM] | IC50 [1, 4] [nM] |
| --- | --- | --- | --- | --- | --- |
| CCOc1cc(F)c(Cn2nc(-c3ncc(CCN)c(Nc4ccnc(NC(C)=O)c4)n3)c3ccccc32)c(F)c1 [Example 2-9-13, N-[4-({5-(2-aminoethyl)-2-[1-(4-ethoxy-2,6-difluorobenzyl)-1H-indazol-3-yl]pyrimidin-4-yl}amino)pyridin-2-yl]acetamide, salt with hydrochloric acid] | 7.1 | 160 | 1000 | 150 | – |
| CCOc1cc(F)c(Cn2nc(-c3ncc(CC(C)(C)N)c(Nc4ccncc4)n3)c3ccccc32)c(F)c1 [Example 2-9-18, 5-(2-amino-2-methylpropyl)-2-[1-(4-ethoxy-2,6-difluorobenzyl)-1H-indazol-3-yl]-N-(pyridin-4-yl)pyrimidin-4-amine, salt with hydrochloric acid] | 15 | 6.7 | 5500 | 170 | – |
| CCOc1cc(F)c(Cn2nc(-c3ncc(CCCOC)c(Nc4ccncc4C(N)=O)n3)c3ccccc32)c(F)c1 [Example 2-10-1, 4-({2-[1-(4-ethoxy-2,6-difluorobenzyl)-1H-indazol-3-yl]-5-(3-methoxypropyl)pyrimidin-4-yl}amino)nicotinamide] | – | 3400 | > 10000 | 1300 | 11 |
| CCOc1cc(F)c(Cn2nc(-c3ncc4c(n3)N(c3ccncc3)C[C@H]4CNCC(F)(F)F)c3ccccc32)c(F)c1 [Example 2-11-3, N-({2-[1-(4-ethoxy-2,6-difluorobenzyl)-1H-indazol-3-yl]-7-(pyridin-4-yl)-6,7-dihydro-5H-pyrrolo[2,3d]pyr-imidin-5-yl}methyl)-2,2,2-trifluoroethanamine] | – | 93 | 3000 | 100 | 12 |
| CCOc1cc(F)c(Cn2nc(-c3nc(Nc4ccncc4)cc(C(C)C)n3)c3ccccc32)c(F)c1 [Example 2-12-3, 2-[1-(4-ethoxy-2,6-difluorobenzyl)-1H-indazol-3-yl]-6-(propan-2-yl)-N-(pyridin-4-yl)pyrimidin-4-amine] | – | 34 | 4900 | 1400 | 17 |
| CCOc1cc(F)c(Cn2nc(-c3nc(COC)cc(Nc4ccncc4)n3)c3ccccc32)c(F)c1 [Example 2-12-4, 2-[1-(4-ethoxy-2,6-difluorobenzyl)-1H-indazol-3-yl]-6-(methoxymethyl)-N-(pyridin-4-yl)pyrimidin-4-amine] | – | 8.9 | 1800 | 420 | 5.2 |
| CCOc1cc(F)c(Cn2nc(-c3nc(CC)cc(Nc4ccncc4)n3)c3ccccc32)c(F)c1 [Example 2-12-9, 2-[1-(4-ethoxy-2,6-difluorobenzyl)-1H-indazol-3-yl]-6-ethyl-N-(pyridin-4-yl)pyrimidin-4-amine] | – | 11 | 3700 | 540 | 21 |
| CCOc1cc(F)c(Cn2nc(-c3nc(CN4CCOCC4)cc(Nc4ccncc4)n3)c3ccccc32)c(F)c1 [Example 2-12-12, 2-[1-(4-ethoxy-2,6-difluorobenzyl)-1H-indazol-3-yl]-6-(morpholin-4-ylmethyl)-N-(pyridin-4-yl)pyrimidin-4-amine] | 6.8 | 3.6 | 3600 | < 100 | – |

Other lines, results leading:

| IC50 [1, 3] [nM] | IC50 (Bub1) [nM] | IC50 (HeLa) [nM] | IC50 [2] [nM] | IC50 [1, 4] [nM] | Structure (SMILES) |
| --- | --- | --- | --- | --- | --- |
| 440 | 14 | 1800 | 220 | – | CCOc1cc(F)c(Cn2nc(-c3ncc(CC4CNC4)c(Nc4ccnc(C(F)(F)F)c4)n3)c3ccccc32)c(F)c1 [Example 2-9-8] |
| 52 | 2.7 | 2300 | 190 | – | CCOc1cc(F)c(Cn2nc(-c3ncc(CC4CNC4)c(Nc4ccnc(C(F)F)c4)n3)c3ccccc32)c(F)c1 [Example 2-9-9, 5-(azetidin-3-ylmethyl)-N-[2-(difluorometh-yl)pyridin-4-yl]-2-[1-(4-ethoxy-2,6-difluorobenzyl)-1H-indazol-3-yl]pyrimidin-4-amine, salt with hydrochloric acid] |
| 7.1 | 1500 | 1000 | 54 | – | CCOc1cc(F)c(Cn2nc(-c3ncc(CCN)c(Nc4ccnc(C(F)F)c4)n3)c3ccccc32)c(F)c1 [Example 2-9-10, 5-(2-aminoethyl)-N-[2-(difluorometh-yl)pyridin-4-yl]-2-[1-(4-ethoxy-2,6-difluorobenzyl)-1H-indazol-3-yl]pyrimidin-4-amine, salt with hydrochloric acid] |
| 360 | 2.8 | 1100 | 110 | – | CCOc1cc(F)c(Cn2nc(-c3ncc(CCN)c(Nc4ccnc(C(F)(F)F)c4)n3)c3ccccc32)c(F)c1 [Example 2-9-11, 5-(2-aminoethyl)-2-[1-(4-ethoxy-2,6-difluorobenzyl)-1H-indazol-3-yl]-N-[2-(trifluorometh-yl)pyridin-4-yl]pyrimidin-4-amine, salt with hydrochloric acid] |
| – | 11 | 4300 | 170 | 11 | CCOc1cc(F)c(Cn2nc(-c3nc4c(c(Nc5ccncc5)n3)CNC4)c3ccccc32)c(F)c1 [Example 2-9-14, 2-[1-(4-ethoxy-2,6-difluorobenzyl)-1H-indazol-3-yl]-N-(pyridin-4-yl)-6,7-dihydro-5H-pyrrolo[3,4-d]pyrimidin-4-amine, salt with hydrochloric acid] |
| – | 2.8 | 4000 | 340 | 3300 | CCOc1cc(F)c(Cn2nc(-c3nc4c(c(Nc5ccnc(C(F)(F)F)c5)n3)CNC4)c3ccccc32)c(F)c1 [Example 2-9-15, 2-[1-(4-ethoxy-2,6-difluorobenzyl)-1H-indazol-3-yl]-N-[2-(trifluoro-methyl)pyridin-4-yl]-6,7-dihydro-5H-pyrrolo[3,4-d]pyrimidin-4-amine, salt with hydrochloric acid] |
| – | 41 | > 10000 | 230 | 62 | CCOc1cc(F)c(Cn2nc(-c3ncc(CC4CN(CC(F)(F)F)C4)c(Nc4ccncc4)n3)c3ccccc32)c(F)c1 [Example 2-11-1, 2-[1-(4-ethoxy-2,6-difluorobenzyl)-1H-indazol-3-yl]-N-(pyridin-4-yl)-5-{[1-(2,2,2-trifluoroethyl)azetidin-3-yl]methyl}pyrimidin-4-amine] |
| 12 | 180 | 2100 | 390 | – | CCOc1cc(F)c(Cn2nc(-c3nc4c(c(Nc5ccncc5)n3)CCC4)c3ccccc32)c(F)c1 [Example 2-12-2, 2-[1-(4-ethoxy-2,6-difluorobenzyl)-1H-indazol-3-yl]-N-(pyridin-4-yl)-6,7-dihydro-5H-cyclopenta[d]pyrimidin-4-amine] |
| 6.5 | 390 | 1300 | 920 | – | CCOc1cc(F)c(Cn2nc(-c3nc(C)c(F)c(Nc4ccncc4)n3)c3ccccc32)c(F)c1 [Example 2-12-5, 2-[1-(4-ethoxy-2,6-difluorobenzyl)-1H-indazol-3-yl]-5-fluoro-6-methyl-N-(pyridin-4-yl)pyrimidin-4-amine] |
| 11 | 6 | 1200 | 330 | – | CCOc1cc(F)c(Cn2nc(-c3nc4c(c(Nc5ccnc(C)c5)n3)CCC4)c3ccccc32)c(F)c1 [Example 2-12-6, 2-[1-(4-ethoxy-2,6-difluorobenzyl)-1H-indazol-3-yl]-N-(2-methylpyridin-4-yl)-6,7-dihydro-5H-cyclopenta[d]pyrimidin-4-amine] |
